Test [1] deals with purified recombinant COX-1. The test is described as follows: COX-1 enzyme based assay. Type of test: biochemical. As to the method: COX-1 and COX-2 enzyme based assays were carried out to check the inhibitory potential of the test compounds on the production of prostaglandin by purified recombinant COX-1/COX-2 enzyme (Proc. Nat. Acad. Sci. USA, 88, 2692-2696, 1991; J. Clin. Immunoassay 15, 116-120, 1992). In this assay, the potential of the test compound to inhibit the production of prostaglandin either by COX-1 or COX-2 from arachidonic acid (substrate) was measured. This was an enzyme based in-vitro assay to evaluate selective COX inhibition with good reproducibility.
Arachidonic acid was converted to PGH2 (Intermediate product) by COX1/COX-2 in the presence or absence of the test compound. The reaction was carried out at 37° C. and after 2 minutes it was stopped by adding 1M HCl. Intermediate product PGH2 was converted to a stable prostanoid product PGF2α by SnCl2 reduction. The amount of PGF2α produced in the reaction was inversely proportional to the COX inhibitory potential of the test compound. The prostanoid product was quantified via enzyme immunoassay (EIA) using a broadly specific antibody that binds to all the major forms of prostaglandin, using Cayman ELISA kit as per the procedure outlined by the manufacturer (Cayman Chemicals, Ann Arbor, USA).

A further test relates to T1, PDE4.
T1 construct: other: 10 μM, source human U937 cells; PDE4 at 10 μm
The test is described as follows: PDE4 activity (source human U937 cells). In kind it is biochemical. As to conditions: for PDE4 inhibition at 10 μM (%): source human U937 cells; for PDE4 at 10 μm: Table XVb summary. As to the method: PDE4 inhibition was measured by following a literature assay procedure (Cortizo J et al., Br J. Pharmacol., 1993, 108: 562-568. The assay method involves the following conditions.
Substrate: 1.01 μM [^3H] camp+camp
Pre-Incubation Time/Temperature: 15 minutes at 25° C.
Incubation Time/Temperature. 20 minutes at 25° C.
Incubation buffer: 50 mM Tris-HCl, pH 7.5, 5 mM MgCl2
Quantitation method: Quantitation of [^3H] Adenosine
Significance criteria: ≧50% of max stimulation or inhibition

The next test has as its system HCT-116. The test is described as follows: Anti-cancer screen (MTT), HCT-116. The settings on record: Homo sapiens. In kind it is cell-based. As to the method: (§1) Experimental drugs are screened for anti-cancer activity in three cell lines for their GI50, TGI and LC50 values (using 5 concentrations for each compound). The cell lines are maintained in DMEM containing 10% fetal bovine serum. 96 well microtiter plates are inoculated with cells in […] for 24 hours at 37° C., 5% CO2, 95% air and 100% relative humidity. 5000 HCT116 cells/well, 5000 NCIH460 cells/well, 10000 U251 cells/well and 5000 MDAMB231 cells/well are plated. A separate plate with these cell lines is also inoculated to determine cell viability before the addition of the compounds (T0).
(§2) Following 24-hour incubation, experimental drugs are added to the 96 well plates. Each plate contains one of the above cell lines and the following in triplicate: 5 different concentrations (0.01, 0.1, 1, 10 and 100 μM) of 4 different compounds, appropriate dilutions of a cytotoxic standard and control (untreated) wells. Compounds are dissolved in dimethylsulfoxide (DMSO) to make 20 mM stock solutions, on the day of drug addition and frozen at −20° C. Serial dilutions of these 20 mM stock solutions are made in complete growth medium such that 100 μL of these drug solutions in medium, of final concentrations equaling 0.01, 0.1, 1, 10 and 100 μM can be added to the cells in triplicate. Standard drugs whose anti-cancer activity has been well documented and which are regularly used are doxorubicin and SAHA.
(§3) Cells are incubated with compounds for 48 hours followed by the addition of 10 μL 3-(4,5-Dimethyl-2-thiazolyl)-2,5-diphenyl-2H-tetrazolium (MTT) solution per well and a subsequent incubation at 37° C., 5% CO2, 95% air and 100% relative humidity, protected from light. After 4 hours, well contents are aspirated carefully followed by addition of 150 μL DMSO per well. Plates are agitated to ensure solution of the formazan crystals in DMSO and absorbance read at 570 nm.
(§4) Percent growth is calculated for each compound's concentration relative to the control and zero measurement wells (T0; viability right before compound addition). If a test well's O.D. value is greater than the T0 measurement for that cell line % Growth=(test−zero)/(control−zero)×100
(§5) If a test well's O.D. value is lower than the T0 measurement for that cell line, then: % Growth=(test−zero)/zero×100
(§6) Plotting % growth versus experimental drug concentration, GI50 is the concentration required to decrease % growth by 50%; TGI is the concentration required to decrease % growth by 100% and LC50 is the concentration required to decrease % growth by 150%.

For a further test, the system named is IL-1β. The test is described as follows: IL-1β inhibition (Table XVa). Type of test: cell-based. The settings on record: Table XVa summary.
A further test has as its system TNF- α. The test is described as follows: TNF-α IC50 (Table XVa, assay not given). In kind it is cell-based. The settings on record: Table XVa summary.
A further test has as its system NCI-H460. The experiment in a line: Anti-cancer screen (MTT), NCI-H460. Type of test: cell-based. The settings on record: Homo sapiens. As to the method:
as §1, §2, §3, §4, §5, §6

A further test concerns DSS Induced colitis. The experiment in a line: IBD-DSS model (DSS induced colitis). In kind it is in vivo, mice. The settings on record: Table XVb summary. On the procedure: Inhibitory Activity in IBD-DSS Model
DSS Induced colitis test was performed as described by Axelsson et al., 1998. Male Balb/c mice were selected in the age of 7-8 weeks for the study. Colitis in mice was induced by providing DSS (2%) in the drinking water from day 1 to 6. Mice were dosed from Day 1 to 6 with test compound suspended in vehicle containing 0.25% carboxymethyl cellulose and 0.5% Tween 80. The control animals received vehicle alone. Body weight and disease activity index was recorded daily during the experiment. After 6 days of treatment, animals were sacrificed; colon weight and colon length was recorded.

A further test relates to TPA induced dermatitis. The test is described as follows: Psoriasis model, TPA induced dermatitis. In kind it is in vivo. As to conditions: mice, topical on the ears. As to the method: Inhibitory Activity in Psoriasis Model TPA induced dermatitis in mice was performed using the protocol described in Eur J Pharmacol 507, 253-259, 2005. Balb/c mice were acclimatized to laboratory conditions 5-7 days prior to the start of the experiment. They were randomly distributed to various groups based on body weight. The baseline ear thickness of the animal's both ears using thickness gauge was measured. For each animal 20 μl of that contains 2.5 μg of TPA was applied with help of micropipettor with disposable tips. Test compound was applied topically to both inner and outer surface of the both the ears i.e. left and right ear with acetone as control after 30 minutes 6 hours and 24 hours after application of TPA (20 μl). Ear thickness was measured after 6 and 24 hours in animals, while for ear weight ears were excised under anesthesia and weighed.

Where [2] appears, read: 48 hours, MTT, read-out: GI50 (μM) HCT-116.
Setting [3] is: Table XVb summary, for HCT, read-out: Cancer cell lines DU, HCT, NCI (Mean GI50, μm), HCT.
The mark [4] stands for this setting: 48 hours, MTT, read-out: GI50 (μM) NCI-H460.
The mark [5] stands for this setting: Table XVb summary, for NCI, read-out: Cancer cell lines DU, HCT, NCI (Mean GI50, μm), NCI.

Read-outs that look alike come from different tables or passages of the source. Some results are limits rather than exact numbers.

Usually GI50 stands for the concentration giving 50% growth inhibition. As usually defined, the IC50 is the concentration that inhibits the measured activity by half. Low readings indicate greater potency in that assay, high ones weaker potency in that assay.

In the case of `CCOC(=O)C1CCN(c2nc(C(F)(F)F)nc(-c3ccc(F)cc3)c2-c2cccc(S(N)(=O)=O)c2)CC1` [Example 59, Ethyl-1-[5-(3-aminosulfonylphenyl)-6-(4-fluorophenyl)-2-(trifluoromethyl)pyrimidin-4-yl]piperidine-4-carboxylate], in test [1] (10 μM), the “% Inhibition in rEnzyme Assay COX-1” value worked out at 32%. Further, in test [1] (Table XVa summary, 10 μm), the “COX1 at 10 μm” value was 32. Also, the “PDE4 inhibition at 10 μM (%)” value in the test with PDE4 came to 93%. In addition, in the test on PDE4, the “PDE4 at 10 μm” value was 87. For the same compound, the 50% growth inhibitory concentration (GI50) with HCT-116 (setting [2]) was above 100 µM; in the test with HCT-116 (setting [3]), above 100 µM; in the test with NCI-H460 (setting [4]) it was 10.5 µM; in the test on NCI-H460 (setting [5]), 10.5 µM. In addition, the “IL-1β at 10 μm” value with IL-1β is 29. In the test on TNF- α, this compound yielded an IC50 of 0.064 µM.

For the compound `NS(=O)(=O)c1cccc(-c2c(-c3ccc(F)cc3)nc(C(F)(F)F)nc2-n2ccnc2)c1` [Example 80, 3-[4-(4-Fluorophenyl)-6-(1H-imidazol-1-yl)-2-(trifluoromethyl)pyrimidin-5-yl]benzenesulfonamide], the “PDE4 inhibition at 10 μM (%)” value with PDE4 was 87%. Also, the “PDE4 at 10 μm” value in the test with PDE4 was 93. The “IBD DAI” value with DSS Induced colitis came out at 35. For the same compound, the GI50 with HCT-116 (setting [2]), in the test on HCT-116 (setting [3]), in the test with NCI-H460 (setting [4]) and with NCI-H460 (setting [5]) was above 100 µM each time. Further, in the test on IL-1β, the “IL-1β at 10 μm” value amounted to 36. Also, in the test with TNF- α, the IC50 worked out at 0.078 µM. Further, the “Psoriasis-acute TPA induced dermatitis % inhibition Ear Wt” value in the test on TPA induced dermatitis came out at 18.9%. For the same compound, the “Psoriasis-acute TPA induced dermatitis % inhibition Ear thickness” value with TPA induced dermatitis amounted to 19.2%.
